Literature values, collected in patent publication US20090252791A1, “PHARMACEUTICAL COMPOSITIONS COMPRISING A TRIPTAN AND A NONSTEROIDAL ANTI-INFLAMMATORY DRUG” (priority 2008, published 2009).

Solubility in water and in saline: readily soluble
Compound: CNS(=O)(=O)Cc1ccc2[nH]cc(CCN(C)C)c2c1 [Sumatriptan, 3-[2-(dimethylamino)ethyl]-N-methyl-1H-indole-5-methanesulfonamide]
